The source of these data is patent US10800816B2 (Baxalta GmbH, priority 2012, dated 2020).

Bridges are numbered along the chain shown (N, C = ends). [ ]: non-standard residue; d: D form. Aib = CC(C)(N)C(=O)O; Sar = CNCC(=O)O

One data set relates to TFPI. In words: Extrinsic Tenase Inhibition assay | % Inhibition @ 2.5μM.
Regarding “Ac-FQSK-Nmg-NVFVAGYFERLRAKL-NH2 (SEQ ID NO: 161) (Ac-FQSK[Sar]NVFVAGYFERLRAKL-NH2; SMILES CC(=O)N[C@@H](Cc1ccccc1)C(=O)N[C@@H](CCC(N)=O)C(=O)N[C@@H](CO)C(=O)N[C@@H](CCCCN)C(=O)N(C)CC(=O)N[C@@H](CC(N)=O)C(=O)N[C@H](C(=O)N[C@@H](Cc1ccccc1)C(=O)N[C@H](C(=O)N[C@@H](C)C(=O)NCC(=O)N[C@@H](Cc1ccc(O)cc1)C(=O)N[C@@H](Cc1ccccc1)C(=O)N[C@@H](CCC(=O)O)C(=O)N[C@@H](CCCNC(=N)N)C(=O)N[C@@H](CC(C)C)C(=O)N[C@@H](CCCNC(=N)N)C(=O)N[C@@H](C)C(=O)N[C@@H](CCCCN)C(=O)N[C@@H](CC(C)C)C(N)=O)C(C)C)C(C)C) [JBT1396]”, the “Extrinsic Tenase Inhibition assay | % Inhibition @ […]” value is recorded as 34%.

Turning to “Ac-FQSK-Nmg-NVFVTGYFERL-Aib-AKL-NH2 (SEQ ID NO: 165) (Ac-FQSK[Sar]NVFVTGYFERL[Aib]AKL-NH2; SMILES CC(=O)N[C@@H](Cc1ccccc1)C(=O)N[C@@H](CCC(N)=O)C(=O)N[C@@H](CO)C(=O)N[C@@H](CCCCN)C(=O)N(C)CC(=O)N[C@@H](CC(N)=O)C(=O)N[C@H](C(=O)N[C@@H](Cc1ccccc1)C(=O)N[C@H](C(=O)N[C@H](C(=O)NCC(=O)N[C@@H](Cc1ccc(O)cc1)C(=O)N[C@@H](Cc1ccccc1)C(=O)N[C@@H](CCC(=O)O)C(=O)N[C@@H](CCCNC(=N)N)C(=O)N[C@@H](CC(C)C)C(=O)NC(C)(C)C(=O)N[C@@H](C)C(=O)N[C@@H](CCCCN)C(=O)N[C@@H](CC(C)C)C(N)=O)[C@@H](C)O)C(C)C)C(C)C) [JBT1585]”, the “Extrinsic Tenase Inhibition assay | % Inhibition @ […]” value stood at 48%.

Consider “Ac-FQSK-Nmg-NVFVTGYFERLRAKL-NH2 (SEQ ID NO: 125) (Ac-FQSK[Sar]NVFVTGYFERLRAKL-NH2; SMILES CC(=O)N[C@@H](Cc1ccccc1)C(=O)N[C@@H](CCC(N)=O)C(=O)N[C@@H](CO)C(=O)N[C@@H](CCCCN)C(=O)N(C)CC(=O)N[C@@H](CC(N)=O)C(=O)N[C@H](C(=O)N[C@@H](Cc1ccccc1)C(=O)N[C@H](C(=O)N[C@H](C(=O)NCC(=O)N[C@@H](Cc1ccc(O)cc1)C(=O)N[C@@H](Cc1ccccc1)C(=O)N[C@@H](CCC(=O)O)C(=O)N[C@@H](CCCNC(=N)N)C(=O)N[C@@H](CC(C)C)C(=O)N[C@@H](CCCNC(=N)N)C(=O)N[C@@H](C)C(=O)N[C@@H](CCCCN)C(=O)N[C@@H](CC(C)C)C(N)=O)[C@@H](C)O)C(C)C)C(C)C) [JBT1155]”, for which the “Extrinsic Tenase Inhibition assay | % Inhibition @ […]” value was 32%.

“Ac-FQSKGNVFvFGYFERLRAKL-NH2 (SEQ ID NO: 936) (Ac-FQSKGNVF[dV]FGYFERLRAKL-NH2; SMILES CC(=O)N[C@@H](Cc1ccccc1)C(=O)N[C@@H](CCC(N)=O)C(=O)N[C@@H](CO)C(=O)N[C@@H](CCCCN)C(=O)NCC(=O)N[C@@H](CC(N)=O)C(=O)N[C@H](C(=O)N[C@@H](Cc1ccccc1)C(=O)N[C@@H](C(=O)N[C@@H](Cc1ccccc1)C(=O)NCC(=O)N[C@@H](Cc1ccc(O)cc1)C(=O)N[C@@H](Cc1ccccc1)C(=O)N[C@@H](CCC(=O)O)C(=O)N[C@@H](CCCNC(=N)N)C(=O)N[C@@H](CC(C)C)C(=O)N[C@@H](CCCNC(=N)N)C(=O)N[C@@H](C)C(=O)N[C@@H](CCCCN)C(=O)N[C@@H](CC(C)C)C(N)=O)C(C)C)C(C)C) [JBT1149]”: the “Extrinsic Tenase Inhibition assay | % Inhibition @ […]” value came to 0%.

Turning to “Ac-FQSKKNVFFFGYFERLRAKL-NH2 (SEQ ID NO: 735) [JBT1152]”, the “Extrinsic Tenase Inhibition assay | % Inhibition @ […]” value worked out at 0%.

“Ac-FQSKKNVFVFGYFERLRAKD-NH2 (SEQ ID NO: 937) [JBT1151]”: the “Extrinsic Tenase Inhibition assay | % Inhibition @ […]” value is 0%.

As to “Ac-FQSKpNVFVFGYFERLRAKL-NH2 (SEQ ID NO: 129) (Ac-FQSK[dP]NVFVFGYFERLRAKL-NH2; SMILES CC(=O)N[C@@H](Cc1ccccc1)C(=O)N[C@@H](CCC(N)=O)C(=O)N[C@@H](CO)C(=O)N[C@@H](CCCCN)C(=O)N1CCC[C@@H]1C(=O)N[C@@H](CC(N)=O)C(=O)N[C@H](C(=O)N[C@@H](Cc1ccccc1)C(=O)N[C@H](C(=O)N[C@@H](Cc1ccccc1)C(=O)NCC(=O)N[C@@H](Cc1ccc(O)cc1)C(=O)N[C@@H](Cc1ccccc1)C(=O)N[C@@H](CCC(=O)O)C(=O)N[C@@H](CCCNC(=N)N)C(=O)N[C@@H](CC(C)C)C(=O)N[C@@H](CCCNC(=N)N)C(=O)N[C@@H](C)C(=O)N[C@@H](CCCCN)C(=O)N[C@@H](CC(C)C)C(N)=O)C(C)C)C(C)C) [JBT1162]”, the “Extrinsic Tenase Inhibition assay | % Inhibition @ […]” value stood at 51%.

Turning to “Ac-[CFQSKGNVFVDGYFERLC]AKL-NH2 (SEQ ID NO: 402) (Ac-CFQSKGNVFVDGYFERLCAKL-NH2; disulfide 1-18) [JBT1592]”, the “Extrinsic Tenase Inhibition assay | % Inhibition @ […]” value turned out to be 11%.

System in another data set: not listed separately
In words: FIGURE 78M.
With `CC(=O)N[C@@H](Cc1ccccc1)C(=O)N[C@@H](CCC(N)=O)C(=O)N[C@@H](CO)C(=O)N[C@@H](CCCCN)C(=O)N1CCC[C@@H]1C(=O)N[C@@H](CC(N)=O)C(=O)N[C@H](C(=O)N[C@@H](Cc1c[nH]cn1)C(=O)N[C@H](C(=O)N[C@@H](CS)C(=O)NCC(=O)N[C@@H](Cc1ccc(O)cc1)C(=O)N[C@@H](Cc1ccccc1)C(=O)N[C@@H](CCC(=O)O)C(=O)N[C@@H](CCCNC(=N)N)C(=O)N[C@@H](CC(C)C)C(=O)NC(C)(C)C(=O)N[C@@H](C)C(=O)N[C@@H](CCCCN)C(=O)N[C@@H](CC(C)C)C(N)=O)C(C)C)C(C)C` [JBT00002371], the “24 h Human Plasma Stability | Mean Remaining [%]” value is listed as 31.20%.

`CC[C@H](NC(=O)[C@H](Cc1c[nH]cn1)NC(=O)[C@@H](NC(=O)[C@H](CC(N)=O)NC(=O)[C@H]1CCCN1C(=O)[C@H](CCCCN)NC(=O)[C@H](CO)NC(=O)[C@H](CCC(N)=O)NC(=O)[C@H](Cc1ccccc1)NC(C)=O)C(C)C)C(=O)N[C@@H](CC(=O)O)C(=O)NCC(=O)N[C@@H](Cc1ccc(O)cc1)C(=O)N[C@@H](Cc1ccccc1)C(=O)N[C@@H](CCC(=O)O)C(=O)N[C@@H](CCCNC(=N)N)C(=O)N[C@@H](CC(C)C)C(=O)NC(C)(C)C(=O)N[C@@H](C)C(=O)N[C@@H](CCCCN)C(=O)N[C@@H](CC(C)C)C(=O)N[C@@H](CSC1CC(=O)N(CC)C1=O)C(N)=O` (some centres unmarked) [JBT00002381, Ac-FQSKpNVH-Abu-DGYFERL-Aib-AKLC(NEM)-NH2]: the “24 h Human Plasma Stability | Mean Remaining [%]” value is recorded as 17.30%.

`CCN1C(=O)CC(SC[C@H](NC(=O)[C@H](CC(C)C)NC(=O)[C@H](CCCCN)NC(=O)[C@H](C)NC(=O)C(C)(C)NC(=O)[C@H](CC(C)C)NC(=O)[C@H](CCCNC(=N)N)NC(=O)[C@H](CCC(=O)O)NC(=O)[C@H](Cc2ccccc2)NC(=O)[C@H](Cc2ccc(O)cc2)NC(=O)CNC(=O)[C@H](CC(=O)O)NC(=O)[C@H](CC(F)(F)F)NC(=O)[C@H](Cc2c[nH]cn2)NC(=O)[C@@H](NC(=O)[C@H](CC(N)=O)NC(=O)[C@H]2CCCN2C(=O)[C@H](CCCCN)NC(=O)[C@H](CO)NC(=O)[C@H](CCC(N)=O)NC(=O)[C@H](Cc2ccccc2)NC(C)=O)C(C)C)C(N)=O)C1=O` (stereo partly drawn) [JBT00002382, Ac-FQSKpNVH-(L-2-Amino-4,4,4-trifluorobutyric acid)- DGYFERL-Aib-AKLC(NEM)-NH2]: the “24 h Human Plasma Stability | Mean Remaining [%]” value is listed as 20.50%.
